In patent publication US10899776B2, “Antiviral and antibacteria agents based on quaternary ammonium compound complexed with boric acid and its derivatives” (B-Organic Films Corp, priority 2015, dated 2021):
Where two headings read alike, the source gives them in different places.

System: L. vannamei shrimp gene expression
Experimental: RNA is extracted using TRIzol® and the Qiagen RNeasy® Mini Kit (Qiagen, Germantown, Md., USA). Shrimp samples immersed in TRIzol® are placed in the FastPrep®-24 (MP Biomedicals LLC, Solon, Ohio, USA) and homogenized during 4° C. for 40 s pulses at 6 m/s. A volume of 200 μL of chloroform is added to a 1.5 mL RNase free tube containing the homogenate material and inverted 15 times. Samples are incubated at room temperature for 3 min before centrifuged at 8000 g for 15 min at 4° C. using the Eppendorf centrifuge. The supernatant is carefully transferred into a new 1.5 mL RNase free tube and the extraction continued following the manufacturer's protocol.
The quality and quantity of RNA are determined by the NanoDrop™ 1000 spectrophotometer (Thermo Fisher Scientific, Waltham, Mass., USA) and Bio-Rad™ (Bio-Rad, Hercules, Calif., USA) using denatured gel electrophoresis with formaldehyde and buffer MOPS 1× (Sambrook, J. 1989. in: «Molecular cloning—a laboratory manual, 2nd ed». J. Sambrook, E. F. Fritsch, T. Maniatis Eds. Cold Spring Harbor, N.Y.: Cold Spring Harbor Laboratory Press).
Microarrays are designed based on publically available gene sequences and ESTs determined from cDNA libraries representing multiple tissues of male and female L. vannamei shrimp, and/or of various physiological conditions.
In total, a length of oligonucleotides about of 61440-mer is included in this study: 39592 shrimp ESTs; 1216 Quality control spots; 112 positive control Alexa-555 dye; 80 positive control Alexa 647 dye; 20320 Unigenes; 16 astringent positive control alexa-555: 16 astringent positive control Alexa-647 dye and 88 negative control empty are submitted to the MYcroarray (University of Michigan, Chemical Engineering Department) for printing on aminosaline glass slides. The exposure and reference sample RNAs are adjusted to final volume 19 μL with oligo d(T) (2 μg/μL) and random primers. (1 μg/μL) in water molecular biology grade. The samples are incubated at 70° C. for 10 min and are then chilled in ice. The samples are mixed finally with 5× Reaction Buffer Superscript II kit (Invitrogen, Life technologies, Carlsbad Calif., USA): 25 mM MgCl2; aminoallyl-dNTP with dUTP (3:1); 0.1 M DTT and 200 U/μL Superscript II Reverse Transcriptase. The mix is incubated at 25° C. for 10 min and then at 42° C. for 2 hours. RNA hydrolysis is made with 5 μL of NaOH 1 N and 1 μL of EDTA 0.5 M. The mixture is incubated at 65° C. for 10 min, and then added 25 μL of HEPES 1 M at pH 7.5. […] The aminoallyl-DNA (aa-DNA) is purified using QIAquick™ (Qiagen, Duesseldorf, Germany). A volume of 7 μL of sodium acetate 3 M and 400 μL binding buffer supplied by the Kit are added. The mixture is allowed to stand 5 min according to the manufacturer's instructions for purification. The eluted aa-DNA is concentrated in a Vacufuge™ until dry and is resuspended in 4.5 μL of sodium bicarbonate 100 mM (pH 9.0). The reaction is conducted in darkness at room temperature overnight. The aa-DNA labeled is purified using QIAquick™ (Qiagen, Duesseldorf, Germany) and eluted with 50 uL water. The aa-DNA labeled is quantified in a Nanodrop™ 1000 spectrophotometer (Thermo Fisher Scientific, Waltham, Mass., USA).
After completely drying in a Vacufuge concentrator, the aa-DNA labeled is resuspended in hybridation mixture containing: ˜0.1 optical density units of aa-DNA labeled from each sample; SSC (5×) buffer; 0.1% SDS; 1× buffer TE. The hybridation mixture is desaturated at 94° C. for 5 min and finally at 65° C. for 30 s. The mixture is placed in the microarray slide previously placed in a chamber for microarray hybridization and covered using a RNase-free plastic coverslip (Hybrislip, Schleicher & Schuell, HS40—40×22 mm; HS22—22×22 mm via Thomas Scientific). The hybridation chamber is incubated at 42° C. overnight.
The slide is placed in a 50 mL conical tube for the first wash and a volume of 50 mL of SSC (1×) buffer and of SDS 0.05% are added for 1 min.

[1] = 2-Down regulated genes, feed 5 mg/g
[2] = 2-Up regulated genes, feed 5 mg/g
[3] = 2-fold Down-regulated genes (treated) versus all genes
[4] = 2-fold Up-regulated genes (treated) versus all genes
[5] = diets supplemented with the complex
[6] = feed 5 mg/g, 14 days, of 262 2-fold Down-regulated genes
[7] = feed 5 mg/g, 14 days, of 583 2-fold Up-regulated genes
[8] = treated vs control shrimp, 57,193 spots available to analysis

C[N+](C)(C)CCOB1OB2OB(O1)OB1OB(O2)O1.[Cl-] [choline/pentaborate complex]
# Enzymes, Aminoacyl-tRNA biosynthesis [1]: 3
# Enzymes, Ascorbate and aldarate metabolism [1]: 2
# Enzymes, Glycolysis/Gluconeogenesis [1]: 3
# Enzymes, Oxidative phosphorylation [1]: 4
# Enzymes, Pentose and glucuronate interconversions [1]: 2
# Enzymes, Pentose phosphate pathway [1]: 5
# Enzymes, Phenylalanine metabolism [1]: 1
# Enzymes, Phenylpropanoid biosynthesis [1]: 1
# Enzymes, Purine metabolism [1]: 3
# Enzymes, Starch and sucrose metabolism [1]: 2
# Genes, Aminoacyl-tRNA biosynthesis [1]: 3
# Genes, Ascorbate and aldarate metabolism [1]: 3
# Genes, Glycolysis/Gluconeogenesis [1]: 3
# Genes, Oxidative phosphorylation [1]: 6
# Genes, Pentose and glucuronate interconversions [1]: 3
# Genes, Pentose phosphate pathway [1]: 5
# Genes, Phenylalanine metabolism [1]: 3
# Genes, Phenylpropanoid biosynthesis [1]: 3
# Genes, Purine metabolism [1]: 4
# Genes, Starch and sucrose metabolism [1]: 5
# Enzymes, Amino sugar and nucleotide Sugar metabolism [2]: 7
# Enzymes, Cytochrome P450 [2]: 3
# Enzymes, Glutathione metabolism [2]: 5
# Enzymes, Glycolysis [2]: 8
# Enzymes, Oxidative phosphorylation [2]: 6
# Enzymes, Pentose phosphate pathway [2]: 4
# Enzymes, Purine metabolism [2]: 7
# Enzymes, Pyruvate metabolism [2]: 6
# Enzymes, Valine, leucine and isoleucine degradation [2]: 6
# Genes, Amino sugar and nucleotide Sugar metabolism [2]: 8
# Genes, Cytochrome P450 [2]: 6
# Genes, Glutathione metabolism [2]: 7
# Genes, Glycolysis [2]: 8
# Genes, Oxidative phosphorylation [2]: 18
# Genes, Pentose phosphate pathway [2]: 5
# Genes, Purine metabolism [2]: 14
# Genes, Pyruvate metabolism [2]: 6
# Genes, Valine, leucine and isoleucine degradation [2]: 6
Fisher's exact test GO term Extracellular region part [3]: 5.69%
Fisher's exact test GO term Gas transport [3]: 2.03%
Fisher's exact test GO term Oxygen transporter activity [3]: 2.03%
Fisher's exact test GO term Photoreceptor cell differentiation [3]: 2.43%
Fisher's exact test GO term Regulation of protein metabolic process [3]: 10.56%
Fisher's exact test GO term Starch metabolic process [3]: 2.03%
Fisher's exact test GO term Sucrose metabolic process [3]: 2.03%
Fisher's exact test GO term Toll-like Receptor for signaling pathway [3]: 1.62%
Fisher's exact test GO term Translation factor activity, nucleic acid binding [3]: 4.47%
Fisher's exact test GO term Transporter activity [3]: 10.56%
Fisher's exact test GO term extracellular region [3]: 9.75%
Fisher's exact test GO term extracellular space [3]: 4.87%
Fisher's exact test GO term Actin Cytoskeleton [4]: 4.62%
Fisher's exact test GO term Calcium Ion Binding [4]: 4.25%
Fisher's exact test GO term Cytoskeletal Protein Binding [4]: 5.55%
Fisher's exact test GO term Hydrogen Transport [4]: 4.81%
Fisher's exact test GO term Ion Transport [4]: 8.15%
Fisher's exact test GO term Monosaccharide Metabolic Process [4]: 4.10%
Fisher's exact test GO term Monovalent Inorganic Cation Transport [4]: 5.92%
Fisher's exact test GO term Positive Regulation of Biosynthetic Process [4]: 3.70%
Fisher's exact test GO term Positive Regulation of Cellular Biosynthetic Process [4]: 3.70%
Fisher's exact test GO term Proton Transport [4]: 4.81%
number of immune related genes that are over-expressed (2-fold Up-regulated, GO term 0006955, feed 5 mg/g, 14 days): at least 33
number of modulated genes associated to Biogenesis [5]: 59
number of modulated genes associated to Biological regulation [5]: 73
number of modulated genes associated to Cellular process [5]: 159
number of modulated genes associated to Developmental process [5]: 40
number of modulated genes associated to Localization [5]: 66
number of modulated genes associated to Metabolic process [5]: 166
number of modulated genes associated to Response to stimuli [5]: 43
number of modulated genes associated to Signaling [5]: 26
number of 2-fold Up-regulated genes (feed 5 mg/g, 14 days): 583
number of genes with a 2-fold Down-regulated expression (feed 5 mg/g, 14 days): 262
Down-regulated genes in biological process Biological Regulation [6]: 9%
Down-regulated genes in biological process Cellular Component Organization or Biogenesis [6]: 7%
Down-regulated genes in biological process Cellular Process [6]: 20%
Down-regulated genes in biological process Developmental Process [6]: 5%
Down-regulated genes in biological process Localization [6]: 8%
Down-regulated genes in biological process Metabolic Process [6]: 20%
Down-regulated genes in biological process Multicellular Process [6]: 6%
Down-regulated genes in biological process Response to Stimulus [6]: 5%
Down-regulated genes in biological process Signaling [6]: 3%
Down-regulated genes in biological process Single-organism Process [6]: 17%
Down-regulated genes with molecular function Binding [6]: 44%
Down-regulated genes with molecular function Catalytic Activity [6]: 40%
Down-regulated genes with molecular function Enzyme Regulator Activity [6]: 3%
Down-regulated genes with molecular function Structural Molecule Activity [6]: 4%
Down-regulated genes with molecular function Transporter Activity [6]: 9%
Up-regulated genes in biological process Biological Regulation [7]: 9%
Up-regulated genes in biological process Cellular Component Organization or Biogenesis [7]: 7%
Up-regulated genes in biological process Cellular Processes [7]: 20%
Up-regulated genes in biological process Developmental Process [7]: 6%
Up-regulated genes in biological process Localization [7]: 7%
Up-regulated genes in biological process Metabolic Process [7]: 18%
Up-regulated genes in biological process Multicellular Organismal Process [7]: 6%
Up-regulated genes in biological process Response to Stimulus [7]: 6%
Up-regulated genes in biological process Signaling [7]: 4%
Up-regulated genes in biological process Single-organism Process [7]: 17%
Up-regulated genes with molecular function Binding Activity [7]: 44%
Up-regulated genes with molecular function Catalytic Activity [7]: 43%
Up-regulated genes with molecular function Structural Molecule Activity [7]: 6%
Up-regulated genes with molecular function Transporter Activity [7]: 7%
Number of spots, Expression Levels (Score) 1 to 1.5 [8]: 3,662
Number of spots, Expression Levels (Score) 1.5 to 2 [8]: 1,984
Number of spots, Expression Levels (Score) <−2 [8]: 1,434
Number of spots, Expression Levels (Score) >2 [8]: 1,650
Number of spots, Expression Levels (Score) −1.5 to −1 [8]: 3,221
Number of spots, Expression Levels (Score) −1.5 to −2 [8]: 1,259
Number of spots, No regulated genes (−1 to 1) [8]: 43,950
